Read-outs that look alike come from different tables or passages of the source.
Columns and labels:
Assay type in all cases: biochemical
[1] = target: T1, human caspase-1 (Homo sapiens, UniProt P29466); test: Caspase-1 assay, Ac-YVAD-AMC; details: 30 min pre-incubation, read-out: Residual activity [%] ± SD, Caspase-1
T1 construct: purchased Sigma Aldrich, St. Louis, MO, USA C5482; host or cells: E. coli
T1 sequence (P29466 120-297 limits assumed): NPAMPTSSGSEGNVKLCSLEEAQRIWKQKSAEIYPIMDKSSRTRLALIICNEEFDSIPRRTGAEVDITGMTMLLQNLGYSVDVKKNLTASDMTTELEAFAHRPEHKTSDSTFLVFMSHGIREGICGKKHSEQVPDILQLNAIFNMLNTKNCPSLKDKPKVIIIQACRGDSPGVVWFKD
T1 sequence (P29466 317-404 limits assumed): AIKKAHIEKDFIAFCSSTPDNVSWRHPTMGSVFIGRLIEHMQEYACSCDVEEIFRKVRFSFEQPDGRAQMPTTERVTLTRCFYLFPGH
Experimental: The inhibitory activity of the compounds against caspase-1 was investigated by fluorimetric assay using Ac-YVAD-AMC (SCP0069-5 mg, Sigma Aldrich, St. Louis, MO, USA) as a substrate. Recombinant human caspase-1 (expressed in E. coli, C5482, batch: SLBX3303, Sigma Aldrich, St. Louis, MO, USA) was diluted with 1 mL of assay buffer (50 mM HEPES pH 7.4, 100 mM NaCl, 1 mM EDTA, 10% (v/v) glycerol, 0.1% CHAPS, 1 mM DTT), divided into 50 µL aliquots and stored at −80 °C.
Briefly, compounds were incubated at a concentration of 100 µM (or 1% (v/v) DMSO as a control) with caspase-1 (1:5 dilution of caspase-1 stock solution) in assay buffer without DTT (to exclude reaction of compounds with DTT) in a 384-well microplate at room temperature for 30 min. The reaction was started by adding the substrate Ac-YVAD-AMC (final concentration: 20 µM) and monitored at λex = 360/40 and λem = 460/40 (Synergy HT, BioTek Instruments, Inc., Santa Clara, CA, USA) for 1 h. The initial linear ranges were used to calculate the velocity and determine RAs. Z-Val-Ala-DL-Asp-fluoromethylketone (N-1510, Bachem, Bubendorf, Switzerland) was used as a positive control.

[2] = target: T2, β5i subunit of human iCP (Homo sapiens, UniProt P20618+P28062); test: Inhibition of β5i activity (RA at 10 µM, IC50, IC50 shift), Suc-LLVY-AMC; details: for Group efficiency (GE): ΔpIC50/ΔNheavy with compound 1 as reference
T2 construct: purchased Boston Biochem, Inc., Cambridge, MA, USA
Experimental: Residual activity measurements were performed at 10 μM final concentrations in the assay buffer (0.01% SDS, 50 mM Tris-HCl, 0.5 mM EDTA, pH 7.4). Stock solutions of the compounds were prepared in DMSO. To 50 μL of each compound in buffer, 25 μL of 0.8 nM human iCP or human cCP (both from Boston Biochem, Inc., Cambridge, MA, USA) were added. After incubation at 37 °C for 30 min, the reaction was started by adding of 25 μL of 100 μM relevant fluorogenic substrate: acetyl-Nle-Pro-Nle-Asp-AMC (Ac-nLPnLD-AMC, (Bachem, Bubendorf, Switzerland)) for β1, acetyl-Pro-Ala-Leu-7-amino-4-methylcoumarin (Ac-PAL-AMC, (Boston Biochem, Inc., Cambridge, MA, USA)) for β1i, t-butyloxycarbonyl-Leu-Arg-Arg-7-amino-4-methylcoumarin (Boc-LRR-AMC, (Bachem, Bubendorf, Switzerland)) for β2 and β2i, succinyl-Leu-Leu-Val-Tyr-7-amino-4-methylcoumarin (Suc-LLVY-AMC) (Bachem, Bubendorf, Switzerland) for β5 and β5i. Reaction progress was recorded on BioTek Synergy HT microplate reader by monitoring fluorescence at 460 nm (λex = 360 nm) for 90 min at 37 °C. The initial linear ranges were used to calculate velocity and determine residual activity. In the case of evaluation of β1, βi, β2, and β2i activities, the assay buffer was modified by replacing SDS with the proteasomal activator PA28α (Boston Biochem, Inc., Cambridge, MA, USA).
Final assay mixtures contained 0.2 nM human iCP or 0.2 nM human cCP in assay buffer (0.01% SDS (or PA28α in cases of β1, β1i subunits), 50 mM Tris-HCl, 0.5 mM EDTA, pH 7.4). Inhibitors were dissolved in DMSO and added to the black 96-well plates for at least eight different concentrations (the final concentration of DMSO was not more than 1%). […] Fluorescence was monitored at 460 nm (λex = 360 nm) for 90 min at 37 °C. The progress of the reactions was recorded and the initial linear ranges were used to calculate the velocity. IC50 values were calculated using GraphPadPrism (GraphPad Software, San Diego, CA, USA) and are means from at least three independent determinations.

[3] = target: T3, hBChE (Homo sapiens, UniProt P06276); test: Cholinesterase assay (Ellman), hBChE; details: 30 min pre-incubation, read-out: Residual activity [%] ± SD, hBChE
T3 construct: gift of Xavier Brazzolotto, Florian Nachon and José Dias (IRBA, Brétigny-sur-Orge, France)
Experimental: The activity of the compounds against ChEs, namely hAChE and hBChE, was determined by the Ellman method. 5,5′-Dithiobis-2-nitrobenzoic acid (Ellman’s reagent; DTNB), butyrylthiocholine iodide, and acetylthiocholine iodides were from Sigma-Aldrich. Recombinant hAChE and hBChE were kindly provided by Xavier Brazzolotto, Florian Nachon, and José Dias (IRBA, Brétigny-sur-Orge, France). Reactions were performed in a final volume of 300 µL of 0.1 M phosphate-buffered solution, pH = 8.0, containing 370 µM DTNB, 500 μM butyrylthiocholine/acetylthiocholine iodide, and approximately 1 nM or 50–100 pM hBChE or hAChE, respectively. The reactions were started by the addition of the substrate after 30-min pre-incubation at room temperature. The final organic solvent (DMSO) content was always 1%. The formation of the yellow 5-thio-2-nitrobenzoate anion was monitored for 2 min at 412 nm, using a 96-well microplate reader (Synergy HT, BioTek Instruments, Inc., Santa Clara, CA, USA). The initial velocities in the presence (vi) and absence (vo) of the test compounds were calculated. Inhibitory potencies were expressed as residual activities (RA), according to the equation RA = (vi − b)/(vo − b), where b is the blank value.

[4] = 0 min pre-incubation (IC50 shift), read-out: IC50 (µM), β5i, without pre-incubation
[5] = 30 min pre-incubation, SDS activator, read-out: IC50 (µM), β5i
[6] = 30 min pre-incubation, SDS activator

T3 sequence (P06276 29-602): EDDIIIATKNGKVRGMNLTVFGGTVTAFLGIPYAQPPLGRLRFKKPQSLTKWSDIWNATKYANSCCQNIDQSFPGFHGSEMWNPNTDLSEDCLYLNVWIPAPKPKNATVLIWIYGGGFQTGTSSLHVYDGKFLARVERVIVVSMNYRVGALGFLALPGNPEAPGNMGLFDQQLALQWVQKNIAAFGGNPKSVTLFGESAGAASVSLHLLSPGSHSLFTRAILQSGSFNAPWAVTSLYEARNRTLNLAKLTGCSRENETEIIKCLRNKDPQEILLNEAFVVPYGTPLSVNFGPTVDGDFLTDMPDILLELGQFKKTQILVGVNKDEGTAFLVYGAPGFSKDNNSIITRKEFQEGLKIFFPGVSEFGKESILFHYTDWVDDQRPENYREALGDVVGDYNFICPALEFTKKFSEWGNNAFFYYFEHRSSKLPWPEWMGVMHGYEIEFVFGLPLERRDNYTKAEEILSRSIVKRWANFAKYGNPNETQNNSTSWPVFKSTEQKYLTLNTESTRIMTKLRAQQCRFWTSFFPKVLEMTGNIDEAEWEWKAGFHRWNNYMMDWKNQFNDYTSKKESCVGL

In the case of `CC(C)C[C@H](NC(=O)Cc1ccc2oc(C#N)nc2c1)B1O[C@@H]2C[C@@H]3C[C@@H](C3(C)C)[C@]2(C)O1` [Compound 39], the remaining activity at 100 µM [1] is reported as > 50%, the IC50 [2, 4] is reported as 3.2 ± 0.4 µM and the IC50 [2, 5] is reported as 3.1 ± 0.3 µM. The remaining activity at 100 µM [3] was 45 ± 1%.

For `CC(=O)Oc1cccc2oc(C#N)nc12` [Compound 14], the remaining activity at 100 µM [1] was 49 ± 5%, the “IC50 (µM), β5i” value [2, 6] was “single digit micromolar” and the IC50 [2, 5] was 19 ± 9 µM. For the same compound, the “Group efficiency (GE)” value [2] was 0.16 and the remaining activity at 100 µM [3] was > 50%.

With `N#Cc1nc2c(O)cccc2o1` [Compound 10] the remaining activity at 100 µM [1] was 9 ± 3%, the IC50 [2, 4] was 10 ± 1 µM and the “IC50 (µM), β5i” value [2, 6] was “single digit micromolar”. For the same compound, the IC50 [2, 5] was 3.6 ± 2.8 µM, the IC50 ([2]; IC50 (µM), β5i, 60-min pre-incubation, 60 min pre-incubation (IC50 shift)) was 0.5 ± 0.07 µM and the “Group efficiency (GE)” value [2] was 1.36. The remaining activity at 100 µM [3] was > 50%.

With `CC(=O)Oc1ccc2oc(C#N)nc2c1` [Compound 15] the remaining activity at 100 µM [1] was 12 ± 2%, the IC50 [2, 5] was 7.4 ± 1.7 µM and the “Group efficiency (GE)” value [2] was 0.26. The remaining activity at 100 µM [3] was > 50%.

`N#Cc1nc2cccc(O)c2o1` [Compound 13] was tested, and the remaining activity at 100 µM [1] was 5 ± 1%, the “IC50 (µM), β5i” value [2, 6] was “single digit micromolar” and the IC50 [2, 5] was 2.1 ± 1.2 µM. The “Group efficiency (GE)” value [2] was 1.60 and the remaining activity at 100 µM [3] was > 50%.

With `COc1cccc2oc(C#N)nc12` [Compound 6] the IC50 [2, 5] was 11 ± 7 µM, the “Group efficiency (GE)” value [2] was 0.44 and the remaining activity at 100 µM [3] was 36 ± 1%.

For `CC(C)C[C@H](NC(=O)CCn1c(C#N)nc2ccccc21)B1O[C@@H]2C[C@@H]3C[C@@H](C3(C)C)[C@]2(C)O1` [Compound 30], the remaining activity at 100 µM [1] was > 50%, the IC50 [2, 4] was 1.5 ± 0.3 µM and the IC50 [2, 5] was 0.6 µM. For the same compound, the remaining activity at 100 µM [3] was > 50%.

With `CC(C)C[C@H](NC(=O)CCCn1c(C#N)nc2ccccc21)B1O[C@@H]2C[C@@H]3C[C@@H](C3(C)C)[C@]2(C)O1` [Compound 31] the remaining activity at 100 µM [1] was > 50%, the IC50 [2, 5] was 5.7 ± 0.9 µM and the remaining activity at 100 µM [3] was > 50%.

In the case of `N#Cc1nc2cc(O)ccc2o1` [Compound 11], the remaining activity at 100 µM [1] is reported as 0%, the “IC50 (µM), β5i” value [2, 6] is reported as “single digit micromolar” and the IC50 [2, 5] is reported as 4.2 ± 2.5 µM. For the same compound, the “Group efficiency (GE)” value [2] was 1.30 and the remaining activity at 100 µM [3] was > 50%.

With `CC(C)C[C@H](NC(=O)CCn1c(C#N)nc2ccccc21)B(O)O` [Compound 34] the remaining activity at 100 µM [1] was > 50%, the IC50 [2, 4] was 5.1 µM and the IC50 [2, 5] was 2.2 ± 0.6 µM. For the same compound, the remaining activity at 100 µM [3] was > 50%.

With `CC(C)C[C@H](NC(=O)CCCn1c(C#N)nc2ccccc21)B(O)O` [Compound 35] the remaining activity at 100 µM [1] was > 50%, the IC50 [2, 5] was 7.9 ± 0.5 µM and the remaining activity at 100 µM [3] was > 50%.

With `CC(C)C[C@H](NC(=O)CCn1c(C#N)nc2cccc(Cl)c21)B1O[C@@H]2C[C@@H]3C[C@@H](C3(C)C)[C@]2(C)O1` [Compound 38] the remaining activity at 100 µM [1] was > 50%, the IC50 [2, 4] was 6.4 ± 0.7 µM and the IC50 [2, 5] was 0.6 ± 0.1 µM. The remaining activity at 100 µM [3] was > 50%.

In the case of `C=Cc1nc(CC(=O)N[C@@H](CC(C)C)B2O[C@@H]3C[C@@H]4C[C@@H](C4(C)C)[C@]3(C)O2)cs1` [Compound 28], the remaining activity at 100 µM [1] is reported as > 50%, the IC50 [2, 5] is reported as 1.4 µM and the remaining activity at 100 µM [3] is reported as 27 ± 3%.

With `CC(C)C[C@H](NC(=O)Cc1ccc2oc(C#N)nc2c1)B(O)O` [Compound 40] the remaining activity at 100 µM [1] was > 50%, the IC50 [2, 5] was 2.4 ± 1 µM and the remaining activity at 100 µM [3] was 33 ± 1%.

From article PMC8700061, “Fragment-Sized and Bidentate (Immuno)Proteasome Inhibitors Derived from Cysteine and Threonine Targeting Warheads” (Cells, 2021)
